Entries after “also recorded” stand apart in the source; their conditions may differ.
Columns and labels:
p3xCPRE/Luc [1] = assay: Activation of p3xCPRE/Luc by small molecular weight organic compounds (Table 6); format: cell-based, human; conditions: luciferase activity 16 hours after exposure
Protocol: In the in vitro assay system described above, a stable HeLa cell line was generated that contains a stably-integrated copy of the CPRE-Luc gene.
HMECs and HeLa cells were transiently transfected with 1 μg of 3xCPRE-Luc and 0.1 μg of pRL-SV40. One day after transfection, cells were treated with the compounds listed in Table 6 Luciferase activities were determined 16 hours after exposure to the compounds. To generate stable HeLa cell lines that contain a stably-integrated copy of the CPRE-Luc gene, HeLa cells were transfected with p3xCPRE-Luc plus pcDNA-LacZ-Hyg (an expression vector containing the hygromycin drug resistance gene) using SuperFeet transfection reagent. Two days after transfection, cells were cultured in hygromycin (400 μg/ml)-containing selection medium until individual colonies were identified. The colonies were expanded and the presence of CPRE-Luc-containing clones was examined by inducible luciferase activity. […]

p3xCPRE/Luc [2] = assay: p3xCPRE/Luc reporter, transient transfection in HMEC cells; format: cell-based, human; conditions: Compound A 10 μM
Protocol: (§1) In an effort to determine the utility of the CPRE-Luc reporter construct for the identification of small molecular weight compounds that activate the CPRE, the p3xCPRE/Luc reporter was transiently transfected into both HeLa and endothelial cells (HMECs). […] Similar results were obtained in HeLa cells with both t-BHQ and compound A (FIG. 12b).
(§2) HMECs and HeLa cells were transiently transfected with 1 μg of 3xCPRE-Luc and 0.1 μg of pRL-SV40. One day after transfection, cells were treated with t-BHQ or compound A. Luciferase activities were determined 16 hours after exposure to tBHQ. To generate stable HeLa cell lines that contain a stably-integrated copy of the CPRE-Luc gene, HeLa cells were transfected with p3xCPRE-Luc plus pcDNA-LacZ-Hyg (an expression vector containing the hygromycin drug resistance gene) using SuperFect transfection reagent. Two days after transfection, cells were cultured in hygromycin (400 μg/ml)-containing selection medium until individual colonies were identified. The colonies were expanded and the presence of CPRE-Luc-containing clones was examined by inducible luciferase activity. All experiments are an average of at least three independent determinations for each experimental sample.

p3xCPRE/Luc [3] = assay: p3xCPRE/Luc reporter, transient transfection in HeLa cells; format: cell-based, human
Protocol: HMEC cells (passage 20) and HeLa cells were seeded into 6 well plates and were grown to approximately 60-70% confluency. Cells were transfected with 2 μg (HeLa) or 1 μg (HMEC) each of p3xCPRE/Luc reporter and Nrf-2 expression vector (an expression vector containing the full-length murine Nrf-2 gene under the control of the CMV promoter (Asakura & Karino (1990) Circ Res, 66:1045-1066). Cells were cultured for an additional 48 hours, and luciferase activity was determined (Promega). An average of at least three independent determinations were made for each experimental sample. Results are expressed as ratio of firefly/renilla luciferase.
as §1, §2

CPRE promoter = assay: Stable HeLa cell line with stably-integrated CPRE-Luc gene; format: cell-based, human
Protocol: Although transient transfection methods are useful for understanding molecular mechanisms of gene expression and cellular biology, they are not suitable for high-throughput screening of libraries of compounds. Therefore, a stable HeLa cell line was generated that contains a stably-integrated copy of the CPRE-Luc gene.
as §2

VCAM-1 = assay: TNF-α-activated cell surface expression of VCAM-1 in cell culture models; format: cell-based; conditions: read-out: IC50, inhibition of TNF-α-activated cell surface expression of VCAM-1
[4] = test system: murine model of allergen-induced peritonitis; assay: Murine model of allergen-induced peritonitis (Type 1 hypersensitivity), eosinophil recruitment; format: in vivo, mouse; conditions: Compound A 50 mg/kg/d intravenous, 1 or 4 hours prior to ovalbumin challenge
Protocol: To evaluate the anti-inflammatory potential of compound A, a murine model of Type 1 hypersensitivity was used. In this model mice are sensitized to ovalbumin and subsequently challenged with ovalbumin by intraperitoneal injection. This leads to eosinophil recruitment and accumulation in the peritoneal cavity 24-48 hours after the challenge.
6-8 week old Balb/c mice (weighing 20-30 g) were given subcutaneous injections of ovalbumin in alum (0.4 ml of 100 μg ovalbumin and 3.3 mg of Alum Inject) on days 0 and 7. The mice were challenged on day 14 with an intraperitoneal injection of ovalbumin (10 μg in 0.2 ml saline). The mice were sacrificed and peritoneal lavage fluid collected 48 hours after the challenge. The peritoneal fluid was concentrated and slide smears made using a cytospin centrifuge. Slides were stained with Diff-Quik and differential counts obtained by counting 300 cells. Compound A was administered by intravenous injection, in a vehicle composed of 95% Liposyn and 5% Tween 20, 4 or 1 hour prior to challenge. Compound A was compared to dexamethosone administered orally at a dose of 2.5 mg/kg/d.
In a common allergic inflammation, balb/C mice were divided into two groups: control/vehicle and Compound G treated. They were then sensitized to ovalbumin on days 0 and 7 with a subcutaneous injection of ovalbumin absorbed in aluminum hydroxide. The treated group was dosed i.v. 50 mg/kg in liposyn/tween and vehicle one day prior to challenge. The mice were then challenged with an intraperitoneal injection of ovalbumin on day 14 and sacrificed 48 hrs post-challenge. Peritoneal fluid was collected and spun down onto slides. Slides were stained with DiffQuik and a differential performed.

[5] = test system: murine model of aerosolized ovalbumin-induced asthma; assay: Mouse asthma model, airway eosinophilia and hyperreactivity; format: in vivo
Protocol: Male BALB-C mice, 6 weeks of age, were randomly assigned to one of following groups: ova/ova, vehicle control, dexamethasone (3 mg/kg) treatment, and Compound A. Animals were weighed on day 0, 7, 12 and 14 and were given access to food and water ad libidum. Mice were sensitized intraperitoneally with 8 μg of ovalbumin and 1 mg of aluminum hydroxide on Day 0 and Day 5. The animals were exposed to aerosolized ovalbumin (0.5%) twice on Day 12 (1 hr & 10 minutes per exposure). The ovalbumin exposures were separated by at least 4 hours. Differentials were performed on bronchoaveolar lavage fluid on Day 14 to determine % eosinophils. Compound A was orally administered daily at a dose of 300 mg/kg from time of sensitization to termination of study to the Compound A group.

[6] = test system: methylated BSA-induced model of delayed type hypersensitivity; assay: Mouse delayed type hypersensitivity model (methylated BSA), paw swelling; format: in vivo; conditions: Compound A 100 mg/kg intraperitoneal at -24, -1 and +6 hrs from challenge; paw weight 24 hours later
Protocol: Balb/C mice were divided into two groups: control/vehicle and treated. They were sensitized intradermally on day 0 with methylated BSA (metBSA), and then challenged with metBSA on day 7 in the right hind paw. Compound A was administered at a dose of 100 mg/kg to the treated group by intraperitoneal injection −24, −1 and +6 hrs from the time of challenge. All animals were sacrificed 24 hours later and the left and right hind paws weighed. The left hind paw weight was subtracted from the right hind paw to give the paw weight increase.

COc1cc(OC)c(-c2cc3ccccc3s2)cc1/C=C/C(=O)c1cc(OC)c(OC)c(OC)c1 [Compound A, 3-(5-Benzo-[b]-thiophene-2-yl-2,4-dimethoxy-phenyl)-1-(3,4,5-trimethoxy-phenyl)propenone]
CPRE Activity: concentration to achieve a two-fold induction of CPRE activity over control (p3xCPRE/Luc [1]): 4.5 µM
p3xCPRE/Luc activity (induction of transcription from the CPRE) (p3xCPRE/Luc [2]): greater than two-fold; also recorded: significantly increased
p3xCPRE/Luc activity (p3xCPRE/Luc [3]; Compound A 10 μM): significantly increased
p3xCPRE/Luc activity (p3xCPRE/Luc [3]; compound A 15 μM (FIG. 9c)): significantly increased
p3xCPRE/Luc activity, concentration-response (p3xCPRE/Luc [3]; transient transfection, 5, 10 and 20 μM (FIG. 13)): dose-dependent response; also recorded: significantly increased
CPRE/Luc activity, percent increase over control (vehicle) levels, concentration-response (CPRE promoter; Hela cells, 1.25, 2.5, 5, 10, 20 and 40 μM (FIG. 14)): significantly elevated in a concentration-dependent manner
Concentration of maximum activation of the CPRE promoter (CPRE promoter; stable HeLa cell line (FIG. 14)): approximately 20 μM
IC50 (VCAM-1): ~1.4 µM
Eosinophil levels in peritoneal fluid (percent eosinophils) [4]: significantly decreased
Eosinophil levels in peritoneal fluid (percent eosinophils) ([4]; listed as compound A): significantly significant reduction
Inhibition of eosinophilia in bronchoaveolar lavage fluid compared with vehicle controls ([5]; Compound A 300 mg/kg oral daily, Day 14, p<0.05): 48%
Eosinophil levels in bronchoaveolar lavage fluid ([5]; Compound A 300 mg/kg/d oral): significantly decreased
Lung function (airway hyperreactivity to methacholine) ([5]; Compound A 300 mg/kg/d oral, 300 mg/kg/day): significantly improved lung function
Inhibition of paw swelling compared with the vehicle controls [6]: 79%

Source: US7247714B2, “Protection against oxidative stress and inflammation by a cytoprotective response element” (Atherogenics, Inc., priority 2001, dated 2007)
